Measurements from US20210252023A1, “METHODS AND COMPOSITIONS FOR TREATING AND/OR PREVENTING THE PROGRESSION AND/OR ONSET OF AGE-RELATED NEURODEGENERATION” (Enterin, Inc., priority 2018, published 2021).
“Also recorded” adds a separate entry of the source.

Key:
[1] = tested on: HIV; details: tissue culture; U.S. Pat. No. 5,763,430; cited from earlier work
[2] = Neuroregeneration in treated adult mouse (cell number in brain areas); type: in vivo
Text: The hypothalamus is of particular interest because it happens to be the site of localization of Aminosterol 1436 in the brain.

[3] = Dose response of delay in growth of BDF1 mice (Example 1, FIG. 2); type: in vivo, B6D2F1 (BDF1) mice; details: 5 and 10 mg/kg IV; data not shown
Protocol: An experiment was conducted to explore the dose response to a delay in growth of B6D2F1 (BDF1) mice to Aminsoterol 1436. 30 day old male BDF1 mice received either vehicle or Aminosterol 1436 intraveneously (IV) at 5 mg/kg or 10 mg/kg (n=15 for each treatment arm) every 3 days until 51 days of age. The Aminosterol 1436 was administered as a aqueous solution in water. BDF1 mice are available from Charles River Laboratories. The animals were fed standard lab chow, offered ad libitum. The animals were weighed and body length measured every 5 days. […] However, while the control animals reached maturity at 120 days, the animals that received 5 mg/kg of Aminosterol 1436 reached maturity at 150 days, corresponding to a 25% delay in reaching maturity, as measured by end weight. […] Most importantly, both treated and untreated animals reached normal adult dimensions, albeit at different rates.

[4] = Brain distribution of radioactive Aminosterol 1436 after IV or ICV administration (FIG. 1); type: in vivo; details: radioactive compound, rat, peripheral vein (IV) or 3rd ventricle (ICV)
Text: The exact mechanism by which Aminosterol 1436 achieves its effect on preventing, delaying onset, and/or treating neurodegeneration, delaying maturity, retarding aging, and increasing potential lifespan is not known. However, without being bound by theory, Applicant theorizes that the effect of Aminosterol 1436 is likely in part due to the drug's effects on the hypothalamus within the brain of the animal.

CC(C)[C@@H](CC[C@@H](C)[C@H]1CC[C@H]2[C@@H]3[C@H](O)C[C@H]4C[C@@H](NCCCNCCCCNCCCN)CC[C@]4(C)[C@H]3CC[C@]12C)OS(=O)(=O)O [Aminosterol 1436, trodusquemine]
antiviral activity against HIV [1]: exhibits antiviral activity against HIV in tissue culture | neuroregeneration (number of cells in subependymal zone, olfactory bulb, hypothalamus, thalamus) [2]: stimulates neuroregeneration | linear growth [3]: slowed to a corresponding degree | accumulation in the brain [4]: accumulation of Aminosterol 1436 within the centers of the brain that control growth, maturation, and senescence; also recorded: accumulates within the centers of the brain that control growth, maturation and senescence
